Measured values: US20120309750A1, “5-MEMBERED HETEROCYCLE DERIVATIVES AND MANUFACTURING PROCESS THEREOF” (ILDONG PHARM CO., LTD., priority 2010, published 2012)

Key:
yeast HSP90 = yeast HSP90 (Saccharomyces cerevisiae, UniProt P02829); test: Hsp90 ATPase assay (malachite green); format: biochemical
Description: (§1) For present invention, the ATPase activity of yeast HSP90 was measured using malachite green assay. Formula I compounds for primary antitumoral activity were treated in human colorectal cancer cells (HCT116) showing increased expression levels of HSP90 client protein and cotoxicity IC50 values was measured as a result.

[1] = tested on: human colorectal cancer cells (HCT116); test: Growth inhibition assay (cytotoxicity) in HCT116; format: cell-based; conditions: HCT-116
Description: as §1

Sequence of yeast HSP90 (P02829 whole entry): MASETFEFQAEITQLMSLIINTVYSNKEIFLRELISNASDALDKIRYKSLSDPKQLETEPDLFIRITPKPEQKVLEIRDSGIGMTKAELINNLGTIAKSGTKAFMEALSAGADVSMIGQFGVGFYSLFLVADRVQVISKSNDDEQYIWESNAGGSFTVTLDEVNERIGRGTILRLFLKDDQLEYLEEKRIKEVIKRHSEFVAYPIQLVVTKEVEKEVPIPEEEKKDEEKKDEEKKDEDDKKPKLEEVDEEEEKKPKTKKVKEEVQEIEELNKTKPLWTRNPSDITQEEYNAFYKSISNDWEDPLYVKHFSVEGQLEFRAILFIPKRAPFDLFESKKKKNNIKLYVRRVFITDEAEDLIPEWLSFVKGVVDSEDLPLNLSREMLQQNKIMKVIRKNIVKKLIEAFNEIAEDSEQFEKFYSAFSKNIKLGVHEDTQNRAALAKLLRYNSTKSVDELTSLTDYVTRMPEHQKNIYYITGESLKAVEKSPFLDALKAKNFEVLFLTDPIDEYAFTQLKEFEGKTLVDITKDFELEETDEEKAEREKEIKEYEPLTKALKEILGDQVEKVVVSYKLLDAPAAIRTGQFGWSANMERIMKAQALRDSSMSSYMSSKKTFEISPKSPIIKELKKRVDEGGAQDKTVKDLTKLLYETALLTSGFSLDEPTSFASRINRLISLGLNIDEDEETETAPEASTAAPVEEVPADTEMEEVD

| SMILES | IC50 (yeast HSP90) [nM] | IC50 [1] [nM] |
| --- | --- | --- |
| CCNC(=O)c1noc(-c2cc(C(C)C)c(O)cc2O)c1-c1cc(CN2CCCC2)no1 [Compound I-39, 5-(2,4-Dihydroxy-5-isopropylphenyl)-N-ethyl-3′-(pyrrolidin-1-ylmethyl)-4,5′-biisoxazole-3-carboxamide] | 500 to 1000 | < 500 |
| CCNC(=O)c1noc(-c2cc(C(C)C)c(O)cc2O)c1-c1cc(CNC(C)C)no1 [Compound I-40, 5-(2,4-Dihydroxy-5-isopropylphenyl)-N-ethyl-3′-((isopropylamino)methyl)-4,5′-biisoxazole-3-carboxamide] | 500 to 1000 | < 500 |
| CCNC(=O)c1noc(-c2cc(C(C)C)c(O)cc2O)c1-c1cc(CN(C)C)no1 [Compound I-41, 5-(2,4-Dihydroxy-5-isopropylphenyl)-3′-((dimethylamino)methyl)-N-ethyl-4,5′-biisoxazole-3-carboxamide] | < 500 | < 500 |
| CCNC(=O)c1noc(-c2cc(C(C)C)c(O)cc2O)c1-c1cc(CNC)no1 [Compound I-42, 5-(2,4-Dihydroxy-5-isopropylphenyl)-N-ethyl-3′-((methylamino)methyl)-4,5′-biisoxazole-3-carboxamide] | < 500 | < 500 |
| CCNC(=O)c1noc(-c2cc(C(C)C)c(O)cc2O)c1-c1cc(CN2CCN(C)CC2)no1 [Compound I-43, 5-(2,4-Dihydroxy-5-isopropylphenyl)-N-ethyl-3′-((4-methylpiperazin-1-yl)methyl)-4,5′-biisoxazole-3-carboxamide] | 500 to 1000 | < 500 |
| C=CCNCc1cc(-c2c(C(=O)NCC)noc2-c2cc(C(C)C)c(O)cc2O)on1 [Compound I-44, 3′-((Allylamino)methyl)-5-(2,4-dihydroxy-5-isopropylphenyl)-N-ethyl-4,5′-biis oxazole-3-carboxamide] | < 500 | < 500 |
| CCCN(CCC)Cc1cc(-c2c(C(=O)NCC)noc2-c2cc(C(C)C)c(O)cc2O)on1 [Compound I-45, 5-(2,4-Dihydroxy-5-isopropylphenyl)-3′-((dipropylamino)methyl)-N-ethyl-4,5′-biisoxazole-3-carboxamide] | < 500 | < 500 |
| CCNC(=O)c1noc(-c2cc(C(C)C)c(O)cc2O)c1-c1cc(-c2ccsc2)no1 [Compound I-46, 5-(2,4-Dihydroxy-5-isopropylphenyl)-N-ethyl-3′-(thiophen-3-yl)-4,5′-biisoxazole-3-carboxamide] | 500 to 1000 | < 500 |
| CCNC(=O)c1noc(-c2cc(C(C)C)c(O)cc2O)c1-c1cc(CN2CCSCC2)no1 [Compound I-47, 5-(2,4-Dihydroxy-5-isopropylphenyl)-N-ethyl-3′-(thiomorpholinomethyl)-4,5′-biisoxazole-3-carboxamide] | < 500 | < 500 |
| CCNC(=O)c1noc(-c2cc(C(C)C)c(O)cc2O)c1-c1cc(C#N)no1 [Compound I-48, 3′-Cyano-5-(2,4-dihydroxy-5-isopropylphenyl)-N-ethyl-4,5′-biisoxazole-3-carboxamide] | 500 to 1000 | < 500 |
| CCNC(=O)c1noc(-c2cc(C(C)C)c(O)cc2O)c1-c1cc(-c2ccccc2)no1 [Compound I-49, 5-(2,4-Dihydroxy-5-isopropylphenyl)-N-ethyl-3′-phenyl-4,5′-biisoxazole-3-carboxamide] | 500 to 1000 | 500 to 1000 |
| CCNC(=O)c1noc(-c2cc(C(C)C)c(O)cc2O)c1-c1cc(C(=O)N2CCSCC2)no1 [Compound I-50, 5-(2,4-Dihydroxy-5-isopropylphenyl)-N-ethyl-3′-(thiomorpholine-4-carbonyl)-4,5′-biisoxazole-3-carboxamide] | 500 to 1000 | < 500 |
| CCNC(=O)c1noc(-c2cc(C(C)C)c(O)cc2O)c1-c1cc(C(OC)OC)no1 [Compound I-51, 5-(2,4-Dihydroxy-5-isopropylphenyl)-3′-(dimethoxymethyl)-N-ethyl-4,5′-biisoxazole-3-carboxamide] | < 500 | < 500 |
| CCNC(=O)c1noc(-c2cc(C(C)C)c(O)cc2O)c1-c1cc(/C=N/OC)no1 [Compound I-52, 5-(2,4-Dihydroxy-5-isopropylphenyl)-N-ethyl-3′-((methoxyimino)methyl)-4,5′-biisoxazole-3-carboxamide] | < 500 | < 500 |
| CCNC(=O)c1noc(-c2cc(C(C)C)c(O)cc2O)c1-c1cc(/C=N/O)no1 [Compound I-53, 5-(2,4-Dihydroxy-5-isopropylphenyl)-N-ethyl-3′-((hydroxyimino)methyl)-4,5′-biisoxazole-3-carboxamide] | 500 to 1000 | < 500 |
| C=CCO/N=C/c1cc(-c2c(C(=O)NCC)noc2-c2cc(C(C)C)c(O)cc2O)on1 [Compound I-54, 3′-((Allyloxyimino)methyl)-5-(2,4-dihydroxy-5-isopropylphenyl)-N-ethyl-4,5′-biisoxazole-3-carboxamide] | 500 to 1000 | < 500 |

| SMILES | IC50 (yeast HSP90) [nM] | IC50 [1] [nM] |
| --- | --- | --- |
| CCNC(=O)c1noc(-c2cc(C(C)C)c(O)cc2O)c1-c1cc(/C=N/OCC)no1 [Compound I-55, 5-(2,4-Dihydroxy-5-isopropylphenyl)-3′-((ethoxyimino)methyl)-N-ethyl-4,5′-biisoxazole-3-carboxamide] | 500 to 1000 | < 500 |
| CCNC(=O)c1noc(-c2cc(C(C)C)c(O)cc2O)c1-c1cc(C(=O)NC)no1 [Compound I-56, 5-(2,4-Dihydroxy-5-isopropylphenyl)-N^3-ethyl-N^3′-methyl-4,5′-biisoxazole-3,3′-dicarboxamide] | < 500 | < 500 |
| CCNC(=O)c1noc(-c2cc(C(C)C)c(O)cc2O)c1-c1noc(C(F)(F)F)n1 [Compound I-57, 5-(2,4-Dihydroxy-5-isopropylphenyl)-N-ethyl-4-(5-(trifluoromethyl)-1,2,4-oxadiazol-3-yl)isoxazole-3-carboxamide] | 500 to 1000 | < 500 |
| CCNC(=O)c1noc(-c2cc(C(C)C)c(O)cc2O)c1-c1noc(C(=O)OC)n1 [Compound I-58, Methyl 3-(5-(2,4-dihydroxy-5-isopropylphenyl)-3-(ethylcarbamoyl)isoxazol-4-yl)-1,2,4-oxadiazole-5-carboxylate] | 500 to 1000 | > 1000 |
| CCNC(=O)c1nc(-c2c(C(=O)NCC)noc2-c2cc(C(C)C)c(O)cc2O)no1 [Compound I-59, 3-(5-(2,4-Dihydroxy-5-isopropylphenyl)-3-(ethylcarbamoyl)isoxazol-4-yl)-N-ethyl-1,2,4-oxadiazole-5-carboxamide] | 500 to 1000 | < 500 |
| CCNC(=O)c1noc(-c2cc(C(C)C)c(O)cc2O)c1-c1noc(-c2ccccc2)n1 [Compound I-61, 5-(2,4-Dihydroxy-5-isopropylphenyl)-N-ethyl-4-(5-phenyl-1,2,4-oxadiazol-3-yl) isoxazole-3-carboxamide] | < 500 | < 500 |
| CCNC(=O)c1noc(-c2cc(C(C)C)c(O)cc2O)c1-c1noc(CC)n1 [Compound I-62, 5-(2,4-Dihydroxy-5-isopropylphenyl)-N-ethyl-4-(5-ethyl-1,2,4-oxadiazol-3-yl)isoxazole-3-carboxamide] | < 500 | < 500 |
| CCNC(=O)c1noc(-c2cc(C(C)C)c(O)cc2O)c1-c1noc(-c2ccco2)n1 [Compound I-63, 5-(2,4-Dihydroxy-5-isopropylphenyl)-N-ethyl-4-(5-(furan-2-yl)-1,2,4-oxadiazol-3-yl)isoxazole-3-carboxamide] | < 500 | < 500 |
| CCNC(=O)c1noc(-c2cc(C(C)C)c(O)cc2O)c1-c1noc(C(=O)N(C)C)n1 [Compound I-64, 3-(5-(2,4-Dihydroxy-5-isopropylphenyl)-3-(ethylcarbamoyl)isoxazol-4-yl)-N,N-dimethyl-1,2,4-oxadiazole-5-carboxamide] | < 500 | < 500 |
| CCNC(=O)c1noc(-c2cc(C(C)C)c(O)cc2O)c1-c1noc(C(C)C)n1 [Compound I-65, 5-(2,4-Dihydroxy-5-isopropylphenyl)-N-ethyl-4-(5-isopropyl-1,2,4-oxadiazol-3-yl)isoxazole-3-carboxamide] | < 500 | < 500 |
| CCNC(=O)c1noc(-c2cc(C(C)C)c(O)cc2O)c1-c1ncon1 [Compound I-66, 5-(2,4-Dihydroxy-5-isopropylphenyl)-N-ethyl-4-(1,2,4-oxadiazol-3-yl)isoxazole-3-carboxamide] | 500 to 1000 | < 500 |
| CCNC(=O)c1noc(-c2cc(C(C)C)c(O)cc2O)c1-c1noc(C(=O)N2CCOCC2)n1 [Compound I-67, 5-(2,4-Dihydroxy-5-isopropylphenyl)-N-ethyl-4-(5-(morpholine-4-carbonyl)-1,2,4-oxadiazol-3-yl)isoxazole-3-carboxamide] | 500 to 1000 | 500 to 1000 |
| CCNC(=O)c1noc(-c2cc(C(C)C)c(O)cc2O)c1-c1noc(C(=O)N2CCCC2)n1 [Compound I-68, 5-(2,4-Dihydroxy-5-isopropylphenyl)-N-ethyl-4-(5-(pyrrolidine-1-carbonyl)-1,2,4-oxadiazol-3-yl)isoxazole-3-carboxamide] | 500 to 1000 | < 500 |
| CCNC(=O)c1noc(-c2cc(C(C)C)c(O)cc2O)c1-c1noc(N2CCCC2)n1 [Compound I-69, 5-(2,4-Dihydroxy-5-isopropylphenyl)-N-ethyl-4-(5-(pyrrolidin-1-yl)-1,2,4-oxadiazol-3-yl)isoxazole-3-carboxamide] | 500 to 1000 | < 500 |
| CCNC(=O)c1noc(-c2cc(C(C)C)c(O)cc2O)c1-c1noc(C(Cl)(Cl)Cl)n1 [Compound I-70, 5-(2,4-Dihydroxy-5-isopropylphenyl)-N-ethyl-4-(5-(trichloromethyl)-1,2,4-oxadiazol-3-yl)isoxazole-3-carboxamide] | 500 to 1000 | 500 to 1000 |
| CCNC(=O)c1noc(-c2cc(C(C)C)c(O)cc2O)c1-c1noc(N2CCCCC2)n1 [Compound I-71, 5-(2,4-Dihydroxy-5-isopropylphenyl)-N-ethyl-4-(5-(piperidin-1-yl)-1,2,4-oxadiazol-3-yl)isoxazole-3-carboxamide] | < 500 | < 500 |
